# From ChEMBL document CHEMBL3507680, “University of Dundee, Gates Library screen for HepG2 cell viability”
# Assay: Human HepG2 cell viability assay in 384 well format
# Assay type: toxicity, cell-based
# Set-up: dose 125 nL, time 70.5 hour; cytotoxicity at 70.5 h: concentration not given beside the values
# Conditions: HepG2 cells, read-out: Inhibition
row,Structure (SMILES),cytotoxicity at 70.5 h
1,O=C(c1ccco1)N1CCC2(CC1)CCN(c1ncccn1)CC2,4.21%
2,Cn1ccnc1CN1C(=O)CO[C@H]2CN(CCCc3ccccc3)C[C@H]21,-1.68%
3,CN(C)[C@@H]1CO[C@H](CNC(=O)c2ccccc2)[C@H]1O,-8.77%
4,CC(=O)N1CCC(N2CCN3C(=O)N(Cc4ccccn4)C[C@H]3C2)CC1,-1.05%
5,N#Cc1ccc(C(=O)N2CCOC[C@H](Oc3cnccn3)C2)cc1,-0.682%
6,COc1ccc(O[C@H]2COCCN(Cc3cccc4c3OCO4)C2)cc1,3.63%
7,CCNC(=O)NC[C@H]1Cn2c(-c3ccccc3)cnc2CO1,-3.79%
8,FC(F)(F)Oc1cccc(CNC[C@H]2Cn3ccnc3CO2)c1,0.704%
9,CC(C)N1CCOC[C@H]1c1nc(-c2ccncc2)c[nH]1,-1.74%
10,c1cc(-c2c[nH]c([C@@H]3COCCN3CC3CC3)n2)ccn1,-1.9%
11,COC(=O)[C@H]1CN(S(C)(=O)=O)CCN1S(C)(=O)=O,-2.09%
12,CN(C)[C@@H]1CO[C@H](CNC(=O)C2CCCC2)[C@H]1O,6.3%
13,CC(C)N[C@@H]1CO[C@H](CNC(=O)c2cccs2)[C@H]1O,1.83%
14,CC[C@H]1CN(C(=O)c2cccnc2)CC[C@H]1CC(=O)NC1CC1,-4.36%
15,COCC(=O)N1CCN(C(=O)c2cccs2)C[C@H]1C(=O)OC,1.41%
16,O=C(O)C[C@@H]1CCN(C(=O)C2CCCC2)C[C@@H]1CCN1CCCCC1,-1.16%
17,CC(=O)N1CC[C@H]2CC(=O)N(C3CCCCC3)CC[C@H]2C1,-2.68%
18,CC(C)(O)c1cn(C[C@H]2C[C@@H]3CCN2C[C@@H]3C(=O)N2CCOCC2)nn1,-1.36%
19,CC[C@H]1CN2CC[C@H]1C[C@@H]2CNC(=O)Nc1cccc(C(F)(F)F)c1,-3.6%
20,COC(=O)[C@@H]1CN(C(=O)NC(C)C)CCN1S(=O)(=O)c1ccccc1,-2.94%
21,Cn1nc(-c2cccs2)cc1[C@H]1CN2CC[C@H]1C[C@@H]2CNS(C)(=O)=O,-6.43%
22,Cc1oncc1C(=O)N1CC2CC1(C(=O)N1CCCC1)C2,8.06%
23,CN(C)C(=O)C1CCC2(CCN(Cc3ccc4ccccc4n3)CC2)O1 (configuration not stated),-8.67%
24,c1coc(CN2CCC3(CC2)COC(COCC2CCOCC2)C3)c1 (configuration not stated),-12.1%
25,CCN1C[C@H]2CCN(Cc3ccncc3)C(=O)[C@@H]2C1,-12%
26,CN(C)C(=O)CN1CCC2(CCN(C(=O)N3CCCC3)CC2)C1=O,-3.29%

row,Structure (SMILES),cytotoxicity at 70.5 h
1,CN(C)C(=O)CN1CCC2(CCN(S(C)(=O)=O)CC2)C1=O,-0.161%
2,CCN1C(=O)CC[C@]12CC[C@@H](NC(=O)c1cnccn1)CC2,12.9%
3,Cc1cccc(CN2CCC23CCCNC3)n1 (configuration not stated),-9.59%
4,CS(=O)(=O)N1C[C@H]2C[C@H](C(=O)N3CCOCC3)[C@@H](C1)O2,-6.47%
5,O=C1CCC2(CCCN(C(=O)NCc3ccccc3)CC2)N1 (configuration not stated),-8.58%
6,O=C(NC1CC1)N1CC[C@H]2[C@H]1CCN2c1ncccn1,-6.35%
7,CC(=O)N1CCC2(CCCN(S(=O)(=O)c3ccc(F)cc3)C2)C1 (configuration not stated),5.56%
8,NC(=O)N1CCC2(CC1)CC(=O)N(CC1CCCO1)c1ccccc12 (configuration not stated),5.57%
9,CO[C@H]1CCN(C(=O)c2cc(C)on2)[C@H]1Cc1ccncc1,-7.23%
10,Cc1cccc(CN2CCC3(CCN(c4ncccn4)C3)C2=O)c1 (configuration not stated),-8.75%
11,O=C(CC1CC1)N1C[C@@H]2CN(c3ccccc3)C(=O)[C@@H]2C1,-8.68%
12,O=C(c1ccco1)N1CCC12CCN(c1ncc(F)cn1)CC2,0.431%
13,O=C1CC2(CCN(S(=O)(=O)c3cccs3)C2)CN1c1cccc(F)c1 (configuration not stated),-9.07%
14,COc1ccc(C[C@H]2CN(C(=O)CS(C)(=O)=O)CC[C@H]2OC)cc1,-4.64%
15,Cc1ccccc1N1CC2(CCN(S(=O)(=O)c3ccccc3)C2)CC1=O (configuration not stated),-7.42%
16,COc1ccc(C[C@H]2CN(C(=O)c3ccn(C)n3)CC[C@H]2OC)cc1,-0.598%
17,COc1ccc(C[C@H]2CN(C(=O)c3cnoc3)CC[C@@H]2OC)cc1,-3.97%
18,CS(=O)(=O)N1CC2(CCN(C(=O)c3csnn3)CC2)c2ccccc21,-4.79%
19,Cc1ccccc1CN1CCC2(CCCN2C(=O)C(C)C)CC1,32.8%
20,CN(C)CC(=O)N1CC2(CCN(Cc3ccccc3)C2)C1,35.2%
21,COCCC(=O)N1C[C@H]2CN(Cc3cccc(C)c3)C(=O)[C@H]2C1,-10.7%
22,O=C(N1CCCC1)N1CCC2(CC1)C(=O)N(CC1CC1)c1ccccc12,-20.3%
23,O=C1C[C@H]2[C@@H](CCN2C(=O)c2cscn2)N1Cc1cccnc1,-20.8%
24,Cc1cccc(CN2C[C@@H]3CN(C(=O)C4CC=CC4)C[C@@H]3C2=O)n1,-14.7%
25,O=C1C[C@H]2[C@@H](CCN2C(=O)Cc2cccs2)N1CC1CC1,-13.5%
26,CC(=O)N1[C@H](Cn2cncn2)C[C@@H]2CN(C(=O)c3ccoc3)CC[C@@H]21,-6.21%

row,Structure (SMILES),cytotoxicity at 70.5 h
1,CCN1C(=O)CCCC12CCCN(C(=O)c1ccoc1C)C2 (configuration not stated),-10.9%
2,O=C(C1CCOC1)N1CCC2(CCCNC2)CC1 (configuration not stated),-8.86%
3,O=C(Cc1cccs1)N1CC[C@H]2[C@H]1CCN2Cc1cccnc1,-6.88%
4,COCC(=O)N1CCc2c(CNS(C)(=O)=O)n[nH]c2C1,-5.36%
5,CCCS(=O)(=O)N1CCC2(CC(=O)N(c3cnn(C)c3)C2)C1 (configuration not stated),-7.78%
6,O=C1NC(c2ccccc2)=N[C@@]12CC[C@@H]1CN(Cc3ccncc3)C[C@@H]12,-13.9%
7,c1coc(CN2CCc3ncnc(C4CCOC4)c3CC2)c1 (configuration not stated),-9.16%
8,CCOCC(=O)N1CCC[C@]2(C[C@@H](OCc3ccncc3)CO2)C1,-7.17%
9,COc1ncccc1CN1C[C@H](C(=O)N2CCCO2)[C@@H]2CCO[C@@H]2C1,-6.23%
10,CCS(=O)(=O)N1CCC2(CC(=O)N(c3ccc4c(c3)OCO4)C2)C1 (configuration not stated),7.63%
11,Cc1nc(C)c(CNC[C@@]2(COc3cccnc3)C[C@@H](O)[C@@H](O)C2)s1,-4.67%
12,NCC1[C@H]2CN(Cc3ccccc3F)C[C@@H]12 (some centres not stated),-6.6%
13,CC(C)NC(=O)CC1CC2(CCN(CC3CC3)CC2)Oc2ccccc21 (configuration not stated),15.7%
14,Cn1cccc1C(=O)N1C[C@H]2CN(Cc3cccs3)C[C@H]2C1,-4.47%
15,CO[C@@H]1CCN(C(=O)c2ccsc2)[C@@H]2CN(CC3CC3)C[C@@H]21,-4.96%
16,CNC(=O)CC1CC2(CCN(CC3CC3)CC2)Oc2ccccc21 (configuration not stated),-6.72%
17,CN1C(=O)CC(c2cnn(C)c2)C12CCN(CC1CCOCC1)CC2 (configuration not stated),-9.88%
18,CO[C@H]1CCN(C(=O)c2ccsc2)[C@@H]2CN(CC3CC3)C[C@H]12,-7.14%
19,O=C(CC1CC2(CCN(CC3CC3)CC2)Oc2ccccc21)NC1CC1 (configuration not stated),-5.53%
20,CC(C)C(=O)N1CC[C@H]2N(C)CC[C@@]2(C(=O)N2CCCC2)CC1,-7.87%
21,COCCN1CC2(CCN(C(=O)c3ccno3)CC2)c2ccccc21,27.9%
22,CC(=O)N1CC[C@H]2OCC[C@@]2(C(=O)NCCc2ccccn2)C1,4.18%
23,COCCN1CCC2(CC1)CC(NC(=O)C1CC1)c1ccccc1O2 (configuration not stated),-5.15%
24,CC(C)CC(=O)NC1CC2(CCN(CCF)CC2)Oc2ccccc21 (configuration not stated),-6.46%
25,Cc1cc(C(=O)N2CC[C@@H](N(C)C)[C@@H]2Cc2ccccc2)no1,-0.0942%
26,CN(C)CCN1C(=O)CCC12CCCN(C(=O)N(C)C)CC2 (configuration not stated),0.00398%

row,Structure (SMILES),cytotoxicity at 70.5 h
1,CC(=O)N1CCCC2(CCC(=O)N2Cc2cccnc2)C1 (configuration not stated),30.1%
2,Cc1cccc(CN2CCc3nnc(Cn4cccc4)n3CC2)n1,-5.46%
3,CC(C)N1CCC2(C=C(C(=O)NC3CC3)c3ccccc32)CC1,-1.67%
4,CC(=O)N1[C@H](CN(C)C)C[C@@H]2CN(C(=O)c3cnc(C)cn3)CC[C@@H]21,-5.19%
5,CC(=O)N1[C@H](CN(C)C)C[C@@H]2CN(C(=O)c3cccn3C)CC[C@@H]21,-11.1%
6,O=C(NC1CC1)C1=CC2(CCN(CCO)CC2)c2ccccc21,-11%
7,CCOC1COC2(CCN(Cc3cccc(C#N)c3)CC2)C1 (configuration not stated),-8.68%
8,c1csc(CN2CCc3ncnc(C4CCOC4)c3CC2)c1 (configuration not stated),-8.76%
9,O=C(O)[C@]12CCCN(Cc3ccco3)C[C@H]1CN(c1ncccn1)C2,-12.1%
10,CC(C)NC(=O)[C@H]1C[C@@H]2[C@@H](C1)OCCN2Cc1ccsc1,-6.32%
11,CC(C)Oc1ncnc2c1CCN(Cc1ccco1)CC2,-2.84%
12,Fc1ccc(CN2CCc3ncnc(C4CCOC4)c3CC2)cc1 (configuration not stated),-5.46%
13,O=C([C@H]1CN(Cc2ccccc2F)C[C@H]2OCC[C@@H]12)N1CCCO1,1.95%
14,CN(C)C(=O)CO[C@H]1CN(Cc2cccc(C#N)c2)[C@@H]2COC[C@H]12,7.63%
15,Cc1noc(C)c1CN1CCn2cc(CNC(=O)C3CCC3)nc2C1,-12.7%
16,COCC(=O)N1CCC2(CC1)C(=O)N(Cc1cccnc1)CCN2C,28.3%
17,CCC(=O)N1CCC2(CC1)C(=O)N(Cc1cccnc1)CCN2C,-3.61%
18,O=C1Nc2ccccc2C12CCN(Cc1ccccn1)CC2,0.291%
19,CN1CC[C@H]2OCC[C@@]2(C(=O)NCCc2ccccn2)C1,21.6%
20,CC[C@H]1N(CC2CCC2)CCC[C@]12CCC(=O)N2Cc1ccncc1,-5.93%
21,O=C1CC[C@@H]2[C@@H](CCN2Cc2ccccn2)N1CC1CC1,-3.44%
22,CC(C)NC(=O)[C@H]1C[C@@H]2[C@@H](C1)OCCN2Cc1ccccn1,-5.2%
23,O=C1C[C@H]2[C@@H](CCN2Cc2ccccn2)N1CCN1CCOCC1,6.45%
24,O=C1C[C@H]2[C@@H](CCN2Cc2ccccn2)N1Cc1cccnc1,-6.81%
